Data as given in US10385022B2, “3-amino-pyridines as GPBAR1 agonists” (HOFFMANN-LA ROCHE INC., priority 2011, dated 2019).
pEC50: −log10 of the molar value.

Target: human GPBAR1 receptor (Homo sapiens (Human), UniProt Q8TDU6)
Assay: functional cAMP assay in CHO-dhfr(minus) cells expressing human GPBAR1 receptors
Format: cell-based
Conditions: CHO-dhfr(minus) cells expressing human GPBAR1, 30 min at 30° C.
In short: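 Functional cAMP responses in a human GPBAR1-transfected CHO-dhfr- clone, picked using lithocholic acid as agonist, gave the EC50 values. Parallel testing in untransfected CHO cells served as a specificity control.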

Sequence of human GPBAR1 receptor (Q8TDU6 whole entry): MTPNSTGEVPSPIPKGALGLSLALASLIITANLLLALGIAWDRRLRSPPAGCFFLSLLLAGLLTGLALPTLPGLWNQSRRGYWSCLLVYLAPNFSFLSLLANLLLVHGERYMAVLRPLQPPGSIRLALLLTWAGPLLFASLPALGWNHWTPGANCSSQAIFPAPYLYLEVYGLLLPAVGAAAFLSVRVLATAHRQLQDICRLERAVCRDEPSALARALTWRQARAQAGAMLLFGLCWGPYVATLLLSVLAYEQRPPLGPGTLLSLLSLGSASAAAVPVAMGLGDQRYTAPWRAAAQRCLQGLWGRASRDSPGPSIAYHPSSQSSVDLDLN

SMILES | pEC50
COC(=O)CN(C(=O)c1cc(C(F)(F)F)cc(S(C)(=O)=O)c1)c1cnccc1-c1cc(F)c(F)cc1OC [Example 172, [[4-(4,5-Difluoro-2-methoxy-phenyl)-pyridin-3-yl]-(3-methanesulfonyl-5-trifluoromethyl-benzoyl)-amino]-acetic acid methyl ester] | 6.20
COC(=O)CN(C(=O)c1cc(C(F)(F)F)nc(C(F)(F)F)c1)c1cnccc1-c1cc(F)c(F)cc1OC [Example 173, {(2,6-Bis-trifluoromethyl-pyridine-4-carbonyl)-[4-(4,5-difluoro-2-methoxy-phenyl)-pyridin-3-yl]-amino}-acetic acid methyl ester] | 7.28
COc1cc(F)c(F)cc1-c1ccncc1N(CC(N)=O)C(=O)c1cc(C(F)(F)F)nc(C(F)(F)F)c1 [Example 174, N-(2-Amino-2-oxoethyl)-N-(4-(4,5-difluoro-2-methoxyphenyl)pyridin-3-yl)-2,6-bis(trifluoromethyl)isonicotinamide] | 7.27
COC(=O)CN(C(=O)c1cc(C(F)(F)F)nc(C(F)(F)F)c1)c1cnccc1-c1ccc(F)cc1OC [Example 176, {(2,6-Bis-trifluoromethyl-pyridine-4-carbonyl)-[4-(4-fluoro-2-methoxy-phenyl)-pyridin-3-yl]-amino}-acetic acid methyl ester] | 7.85
COc1cc(F)ccc1-c1ccncc1N(CC(N)=O)C(=O)c1cc(C(F)(F)F)nc(C(F)(F)F)c1 [Example 177, N-Carbamoylmethyl-N-[4-(4-fluoro-2-methoxy-phenyl)-pyridin-3-yl]-2,6-bis-trifluoromethyl-isonicotinamide] | 7.44
COC(=O)CN(C(=O)c1cc(C(F)(F)F)cc(S(=O)(=O)N(C)C)c1)c1cnccc1-c1cccnc1OC [Example 178, Methyl 2-(3-(N,N-dimethylsulfamoyl)-N-(2-methoxy-3,4′-bipyridin-3′-yl)-5-(trifluoromethyl)benzamido)acetate] | 7.31
COC(=O)CN(C(=O)c1cc(C(F)(F)F)cc(S(C)(=O)=O)c1)c1cnccc1-c1cccnc1OC [Example 180, [(3-Methanesulfonyl-5-trifluoromethyl-benzoyl)-(2-methoxy-[3,4′]bipyridinyl-3′-yl)-amino]-acetic acid methyl ester] | 6.71
COc1ncccc1-c1ccncc1N(CC(N)=O)C(=O)c1cc(C(F)(F)F)cc(S(C)(=O)=O)c1 [Example 181, N-Carbamoylmethyl-3-methanesulfonyl-N-(2-methoxy-[3,4′]bipyridinyl-3′-yl)-5-trifluoromethyl-benzamide] | 5.53
COC(=O)CN(C(=O)c1cc(C(F)(F)F)nc(C(F)(F)F)c1)c1cnccc1-c1cccnc1OC [Example 182, Methyl 2-(N-(2-methoxy-3,4′-bipyridin-3′-yl)-2,6-bis(trifluoromethyl)isonicotinamido)acetate] | 7.57
COc1ncccc1-c1ccncc1N(CC(N)=O)C(=O)c1cc(C(F)(F)F)nc(C(F)(F)F)c1 [Example 183, N-(2-Amino-2-oxoethyl)-N-(2-methoxy-3,4′-bipyridin-3′-yl)-2,6-bis(trifluoromethyl)-isonicotinamide] | 6.69
COc1cc(F)ccc1-c1ccncc1N(CC(N)=O)C(=O)c1cc(C(F)(F)F)cc(S(C)(=O)=O)c1 [Example 187, N-Carbamoylmethyl-N-[4-(4-fluoro-2-methoxy-phenyl)-pyridin-3-yl]-3-methanesulfonyl-5-trifluoromethyl-benzamide] | 6.32
COc1cc(F)c(F)cc1-c1ccncc1N(CC(N)=O)C(=O)c1cc(C(F)(F)F)cc(S(C)(=O)=O)c1 [Example 193, N-(2-Amino-2-oxoethyl)-N-(4-(4,5-difluoro-2-methoxyphenyl)pyridin-3-yl)-3-(methylsulfonyl)-5-(trifluoromethyl)benzamide] | 6.34
COC(=O)CN(C(=O)c1cc(C(F)(F)F)nc(C(F)(F)F)c1)c1cnccc1-c1c(F)cccc1OC [Example 195, Methyl 2-(N-(4-(2-fluoro-6-methoxyphenyl)pyridin-3-yl)-2,6-bis(trifluoromethyl)isonicotinamido)acetate] | 7.89
COc1cc(C(=O)N(C)c2cnccc2-c2ccc(F)cc2OC)cc(Cl)n1 [Example 198, 2-Chloro-N-[4-(4-fluoro-2-methoxy-phenyl)-pyridin-3-yl]-6-methoxy-N-methyl-isonicotinamide] | 7.04

Results, then the compound that gave them:

pEC50 | SMILES
7.00 | Cc1ccccc1-c1ccncc1N(CCS(C)(=O)=O)C(=O)c1cc(C(F)(F)F)nc(C(F)(F)F)c1 [Example 163, N-(2-Methanesulfonyl-ethyl)-N-(4-o-tolyl-pyridin-3-yl)-2,6-bis-trifluoromethyl-isonicotinamide]
5.77 | Cc1ccccc1-c1ccncc1N(C)C(=O)c1cc(N)cc(C(F)(F)F)c1 [Example 164, 3-amino-N-methyl-N-(4-o-tolylpyridin-3-yl)-5-(trifluoromethyl)benzamide]
6.82 | Cc1ccccc1-c1ccncc1N(CCC#N)C(=O)c1cc(C(F)(F)F)cc(C(F)(F)F)c1 [Example 165, N-(2-Cyano-ethyl)-N-(4-o-tolyl-pyridin-3-yl)-3,5-bis-trifluoromethyl-benzamide]
5.75 | CN(C(=O)c1cc(C(F)(F)F)cc(C(F)(F)F)c1)c1cnccc1C1=CCOCC1 [Example 166, N-[4-(3,6-Dihydro-2H-pyran-4-yl)-pyridin-3-yl]-N-methyl-3,5-bis-trifluoromethyl-benzamide]
5.56 | COc1cccc(-c2ccncc2N(C)C(=O)c2cc(C(F)(F)F)cc(C(F)(F)F)c2)c1OC [Example 167, N-[4-(2,3-Dimethoxy-phenyl)-pyridin-3-yl]-N-methyl-3,5-bis-trifluoromethyl-benzamide]
7.39 | CCc1ccccc1-c1ccncc1N(C)C(=O)c1cc(C(F)(F)F)cc(C(F)(F)F)c1 [Example 168, N-[4-(2-Ethyl-phenyl)-pyridin-3-yl]-N-methyl-3,5-bis-trifluoromethyl-benzamide]
7.59 | COc1cc(F)ccc1-c1ccncc1N(C)C(=O)c1cc(Cl)nc(C(F)(F)F)c1 [Example 169, 2-Chloro-N-[4-(4-fluoro-2-methoxy-phenyl)-pyridin-3-yl]-N-methyl-6-trifluoromethyl-isonicotinamide]
6.93 | COc1ncccc1-c1ccncc1N(CC(F)(F)F)C(=O)c1cc(C(F)(F)F)cc(S(=O)(=O)N(C)C)c1 [Example 170, 3-Dimethylsulfamoyl-N-(2-methoxy-[3,4′]bipyridinyl-3′-yl)-N-(2,2,2-trifluoro-ethyl)-5-trifluoromethyl-benzamide]
7.25 | Cc1ccccc1-c1ccncc1N(C)C(=O)c1cc(Cl)nc(C(F)(F)F)c1 [Example 171, 2-Chloro-N-methyl-N-(4-o-tolyl-pyridin-3-yl)-6-trifluoromethyl-isonicotinamide]
6.24 | CN(C(=O)c1cc(C(F)(F)F)cc(C(F)(F)F)c1)c1cnccc1-c1ccccc1CC#N [Example 175, N-[4-(2-Cyanomethyl-phenyl)-pyridin-3-yl]-N-methyl-3,5-bis-trifluoromethyl-benzamide]
7.82 | Cc1ccccc1-c1ccncc1N(C)C(=O)c1cc([N+](=O)[O-])cc(C(F)(F)F)c1 [Example 184, N-Methyl-3-nitro-N-(4-o-tolylpyridin-3-yl)-5-(trifluoromethyl)benzamide]
5.62 | Cc1ccccc1-c1ccncc1N(C)C(=O)c1cc(N2CCCC2=O)cc(C(F)(F)F)c1 [Example 185, N-Methyl-3-(2-oxo-pyrrolidin-1-yl)-N-(4-o-tolyl-pyridin-3-yl)-5-trifluoromethyl-benzamide]
7.15 | COC(=O)CN(C(=O)c1cc(C(F)(F)F)cc(C(F)(F)F)c1)c1cnccc1-c1cc(F)c(F)cc1OC [Example 188, {(3,5-Bis-trifluoromethyl-benzoyl)-[4-(4,5-difluoro-2-methoxy-phenyl)-pyridin-3-yl]-amino}-acetic acid methyl ester]
7.33 | COc1cc(F)c(F)cc1-c1ccncc1N(CC(N)=O)C(=O)c1cc(C(F)(F)F)cc(C(F)(F)F)c1 [Example 189, N-Carbamoylmethyl-N-[4-(4,5-difluoro-2-methoxy-phenyl)-pyridin-3-yl]-3,5-bis-trifluoromethyl-benzamide]
7.05 | Cc1ccccc1-c1ccncc1N(C)C(=O)c1cc(C(F)(F)F)cc(C(F)(F)F)n1 [Example 190, 4,6-Bis-trifluoromethyl-pyridine-2-carboxylic acid methyl-(4-o-tolyl-pyridin-3-yl)-amide]
6.95 | CS(=O)(=O)CCN(C(=O)c1cc(C(F)(F)F)cc(C(F)(F)F)c1)c1cnccc1-c1ccccc1F [Example 191, N-[4-(2-Fluoro-phenyl)-pyridin-3-yl]-N-(2-methanesulfonyl-ethyl)-3,5-bis-trifluoromethyl-benzamide]
6.98 | COc1cc(F)ccc1-c1ccncc1N(CCS(C)(=O)=O)C(=O)c1cc(C(F)(F)F)cc(C(F)(F)F)c1 [Example 192, N-[4-(4-Fluoro-2-methoxy-phenyl)-pyridin-3-yl]-N-(2-methanesulfonyl-ethyl)-3,5-bis-tri fluoro methyl-benzamide]
6.59 | Cc1ccccc1-c1ccncc1N(C)C(=O)c1cc(C(F)(F)F)nc(S(C)(=O)=O)c1 [Example 194, 2-Methanesulfonyl-N-methyl-N-(4-o-tolyl-pyridin-3-yl)-6-trifluoromethyl-isonicotinamide]
7.64 | COC(=O)CN(C(=O)c1cc(C(F)(F)F)nc(C(F)(F)F)c1)c1cnccc1-c1ccccc1F [Example 196, Methyl 2-(N-(4-(2-fluorophenyl)pyridin-3-yl)-2,6-bis(trifluoromethyl)isonicotinamido)acetate]
6.98 | NC(=O)CN(C(=O)c1cc(C(F)(F)F)nc(C(F)(F)F)c1)c1cnccc1-c1ccccc1F [Example 197, N-Carbamoylmethyl-N-[4-(2-fluoro-phenyl)-pyridin-3-yl]-2,6-bis-trifluoromethyl-isonicotinamide]
